Results as given in ChEMBL document CHEMBL1201862, “PubChem BioAssay data set” (2004).
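Dose response: 5 concentrations. Exposure: 48 h. Format: 96-well plates. Endpoint: linear interpolation; highest concentration if not reached. Abbreviation: GI50, concentration required for 50% inhibition of growth.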 Calls of active or inactive are those of the source. No stated cut-off is given here; in the data, active = GI50 up to about 1.1 µM and inactive = higher.

Experiments:
Assay in all cases: NCI anticancer screen, dose series, 48 h
OVCAR-5 = system: OVCAR-5
NCI-H460 = system: NCI-H460
OVCAR-4 = system: OVCAR-4
SK-MEL-28 = system: SK-MEL-28
SN12C = system: SN12C
786-0 = system: 786-0
IGROV-1 = system: IGROV-1
UO-31 = system: UO-31
COLO 205 = system: COLO 205
RXF 393 = system: RXF 393
NCI-H23 = system: NCI-H23
NCI-H226 = system: NCI-H226
SF-295 = system: SF-295
A549 = system: A549
HCT-15 = system: HCT-15
UACC-257 = system: UACC-257

SMILES	GI50 (OVCAR-5)	GI50 (NCI-H460)	GI50 (OVCAR-4)	GI50 (SK-MEL-28)	GI50 (SN12C)	GI50 (786-0)	GI50 (IGROV-1)	GI50 (UO-31)	GI50 (COLO 205)	GI50 (RXF 393)	GI50 (NCI-H23)	GI50 (NCI-H226)	GI50 (SF-295)	GI50 (A549)	GI50 (HCT-15)	GI50 (UACC-257)
CCCCN(CCCC)CCCn1cnc2ncccc2c1=O	> 100 µM (inactive)	> 100 µM (inactive)	> 100 µM (inactive)	> 100 µM (inactive)	> 100 µM (inactive)	> 100 µM (inactive)	> 100 µM (inactive)	> 100 µM (inactive)	65.6 µM (inactive)	> 100 µM (inactive)	> 100 µM (inactive)	> 100 µM (inactive)	> 100 µM (inactive)	> 100 µM (inactive)		
CC1CCP(=O)(c2ccccc2)CC1 (stereo unspecified)	> 100 µM (inactive)	> 100 µM (inactive)	> 100 µM (inactive)	> 100 µM (inactive)	> 100 µM (inactive)	> 100 µM (inactive)	> 100 µM (inactive)	> 100 µM (inactive)	> 100 µM (inactive)	> 100 µM (inactive)	> 100 µM (inactive)		> 100 µM (inactive)	> 100 µM (inactive)	> 100 µM	> 100 µM (inactive)
CCOC(=O)NC(=O)c1cn(CCCO)c(=O)[nH]c1=O	> 100 µM (inactive)	> 100 µM (inactive)	> 100 µM (inactive)	> 100 µM (inactive)	> 100 µM (inactive)	> 100 µM (inactive)	> 100 µM (inactive)	> 100 µM (inactive)	> 100 µM (inactive)		> 100 µM (inactive)	> 100 µM (inactive)	> 100 µM (inactive)	> 100 µM (inactive)	> 100 µM	> 100 µM (inactive)
CN(C(=O)C12C3C4C1C1C2C3C41C(O)C(C)(C)C)C(C)(C)C (stereo unspecified)	> 100 µM (inactive)	> 100 µM (inactive)	> 100 µM (inactive)	> 100 µM (inactive)	> 100 µM (inactive)	> 100 µM (inactive)	> 100 µM (inactive)	> 100 µM (inactive)	> 100 µM (inactive)		> 100 µM (inactive)	> 100 µM (inactive)	> 100 µM (inactive)	> 100 µM (inactive)		> 100 µM (inactive)
CCc1cc2c(c3[nH]ccc13)[C@@H](C)C[C@H]2C		14.9 µM (inactive)		16.1 µM (inactive)	15.6 µM (inactive)	15 µM (inactive)	19.4 µM (inactive)	18.3 µM (inactive)	19.9 µM (inactive)	13.8 µM (inactive)	17.8 µM (inactive)	16.4 µM (inactive)	18.8 µM (inactive)	19.6 µM (inactive)	14.4 µM	19.9 µM (inactive)
CN(CCN(C)C(=O)CCOS(C)(=O)=O)C(=O)CCOS(C)(=O)=O	> 100 µM (inactive)	19.5 µM (inactive)	> 100 µM (inactive)	> 100 µM (inactive)	> 100 µM (inactive)	> 100 µM (inactive)	> 100 µM (inactive)		> 100 µM (inactive)		> 100 µM (inactive)	> 100 µM (inactive)	> 100 µM (inactive)	> 100 µM (inactive)	> 100 µM	> 100 µM (inactive)
O=c1c2cc(Br)cc(Br)c2[nH]c(=S)n1-c1ccccc1	> 100 µM (inactive)	> 100 µM (inactive)	86.3 µM (inactive)	50.7 µM (inactive)	78.5 µM (inactive)	99.1 µM (inactive)	> 100 µM (inactive)	40.5 µM (inactive)	> 100 µM (inactive)		28.4 µM (inactive)	30.2 µM (inactive)	> 100 µM (inactive)	63.1 µM (inactive)	90.2 µM	> 100 µM (inactive)
